# Source: patent US20020019336A1, “Sustained release drug compositions” (priority 2000, published 2002)
# Tested on: neovascularization
# Assay: neovascularization after subcutaneous injection or implantation in rats
# Format: in vivo
# Conditions: back subcutaneous tissue, seven days after administration, 1 μg bFGF
# Description: The compositions listed in Table 1 below were generated essentially according to Example 9, with modifications as indicated.
# All compositions, including controls, were injected or implanted into the back subcutaneous tissue of rats. It was known that bFGF promotes neovascularization. Seven days after administration, each rat was evaluated for neovascularization at the area peripheral to the site of injection or implantation.
# To distinguish newly synthesized blood vessels from pre-existing ones, lipid microspheres were injected into […] just superficial to the pre-existing capillary bed early in the experiment (at day 0). At the end of the experiment, the neovascular capillaries, if any, would reside superficial to the microspheres. Thus, new capillaries were easily identified by seeing whether there was vascularization above (superficial to) the microspheres at the end of the experiment.
substance,measurement,value
basic fibroblast growth factor [bFGF alone],neovascularization at area peripheral to site of injection or implantation,no neovascularization
